Calls of active or inactive are those of the source. How the calls were made is not given here.
System: CCRIS mutagenicity, Ames/micronucleus/aberration tests
Assay: CCRIS mutagenicity studies

C#C[C@]1(O)CC[C@H]2[C@@H]3CCc4cc(O)ccc4[C@H]3CC[C@@]21C
mutagenic call (End Point: IN VITRO CHROMOSOMAL ABERRATIONS, Test System: CHINESE HAMSTER CELL DON (22;XY), Metabolic Activation: NONE): active; positive (ploidy changes)
mutagenic call (End Point: IN VITRO CHROMOSOMAL ABERRATIONS, Test System: CHO CELLS, Metabolic Activation: NONE): active; positive
mutagenic call (End Point: IN VITRO CHROMOSOMAL ABERRATIONS, Test System: HUMAN (FEMALE) PERIPHERAL BLOOD LYMPHOCYTES, Metabolic Activation: NONE): inactive; negative
mutagenic call (End Point: IN VITRO CHROMOSOMAL ABERRATIONS, Test System: HUMAN (FEMALE) PERIPHERAL BLOOD LYMPHOCYTES, Metabolic Activation: RAT, LIVER, S-9, NO NADP): inactive; negative
mutagenic call (End Point: IN VITRO CHROMOSOMAL ABERRATIONS, Test System: HUMAN (FEMALE) PERIPHERAL BLOOD LYMPHOCYTES, Metabolic Activation: RAT, LIVER, S-9, WITH NADP ADDITION): active; positive (structural changes)
mutagenic call (End Point: IN VITRO CHROMOSOMAL ABERRATIONS, Test System: HUMAN PERIPHERAL LYMPHOCYTES, Metabolic Activation: NONE): inactive; negative
mutagenic call (End Point: IN VITRO CHROMOSOMAL ABERRATIONS, Test System: HUMAN PERIPHERAL LYMPHOCYTES, Metabolic Activation: RAT, LIVER, S-9, AROCLOR 1254): inactive; negative
mutagenic call (End Point: IN VIVO MICRONUCLEUS, Test System: BONE MARROW POLYCHROMATIC ERYTHROCYTES, Species: MOUSE, Strain/Sex: NMRI/FEMALE, Route: INTRAGASTRIC): inactive; negative
mutagenic call (End Point: IN VIVO MICRONUCLEUS, Test System: BONE MARROW POLYCHROMATIC ERYTHROCYTES, Species: MOUSE, Strain/Sex: SWISS ALBINO, Route: ORAL (GAVAGE)): inactive; negative
mutagenic call (Test System: AMES SALMONELLA TYPHIMURIUM, Strain/Indicator: TA97, Metabolic Activation: HAMSTER, LIVER, S-9, AROCLOR 1254 (10 OR 30%), Method: PREINCUBATION): inactive; negative
mutagenic call (Test System: AMES SALMONELLA TYPHIMURIUM, Strain/Indicator: TA97, Metabolic Activation: NONE, Method: PREINCUBATION): inactive; negative
mutagenic call (Test System: AMES SALMONELLA TYPHIMURIUM, Strain/Indicator: TA97, Metabolic Activation: RAT, LIVER, S-9, AROCLOR 1254 (10%), Method: PREINCUBATION): inactive; negative
mutagenic call (Test System: AMES SALMONELLA TYPHIMURIUM, Strain/Indicator: TA97, Metabolic Activation: RAT, LIVER, S-9, AROCLOR 1254 (30%), Method: PREINCUBATION): inactive; negative
mutagenic call (Test System: AMES SALMONELLA TYPHIMURIUM, Strain/Indicator: TA98, Metabolic Activation: HAMSTER, LIVER, S-9, AROCLOR 1254 (10 OR 30%), Method: PREINCUBATION): inactive; negative
mutagenic call (Test System: AMES SALMONELLA TYPHIMURIUM, Strain/Indicator: TA98, Metabolic Activation: MOUSE, LIVER, S-9, Method: STANDARD PLATE): inactive; negative
mutagenic call (Test System: AMES SALMONELLA TYPHIMURIUM, Strain/Indicator: TA98, Metabolic Activation: NONE): inactive; negative
mutagenic call (Test System: AMES SALMONELLA TYPHIMURIUM, Strain/Indicator: TA98, Metabolic Activation: NONE, Method: PREINCUBATION): inactive; negative
mutagenic call (Test System: AMES SALMONELLA TYPHIMURIUM, Strain/Indicator: TA98, Metabolic Activation: NONE, Method: STANDARD PLATE): inactive; negative
mutagenic call (Test System: AMES SALMONELLA TYPHIMURIUM, Strain/Indicator: TA98, Metabolic Activation: RAT, LIVER, S-9, AROCLOR 1254 (10%), Method: PREINCUBATION): inactive; negative
mutagenic call (Test System: AMES SALMONELLA TYPHIMURIUM, Strain/Indicator: TA98, Metabolic Activation: RAT, LIVER, S-9, AROCLOR 1254 (30%), Method: PREINCUBATION): inactive; negative
mutagenic call (Test System: AMES SALMONELLA TYPHIMURIUM, Strain/Indicator: TA98, Metabolic Activation: RAT, LIVER, S-9, AROCLOR 1254, Method: STANDARD PLATE): inactive; negative
mutagenic call (Test System: AMES SALMONELLA TYPHIMURIUM, Strain/Indicator: TA98, Metabolic Activation: S-9): inactive; negative
mutagenic call (Test System: AMES SALMONELLA TYPHIMURIUM, Strain/Indicator: TA100, Metabolic Activation: HAMSTER, LIVER, S-9, AROCLOR 1254 (10 OR 30%), Method: PREINCUBATION): inactive; negative
mutagenic call (Test System: AMES SALMONELLA TYPHIMURIUM, Strain/Indicator: TA100, Metabolic Activation: MOUSE, LIVER, S-9, Method: STANDARD PLATE): inactive; negative
mutagenic call (Test System: AMES SALMONELLA TYPHIMURIUM, Strain/Indicator: TA100, Metabolic Activation: NONE): inactive; negative
mutagenic call (Test System: AMES SALMONELLA TYPHIMURIUM, Strain/Indicator: TA100, Metabolic Activation: NONE, Method: PREINCUBATION): inactive; negative
mutagenic call (Test System: AMES SALMONELLA TYPHIMURIUM, Strain/Indicator: TA100, Metabolic Activation: NONE, Method: STANDARD PLATE): inactive; negative
mutagenic call (Test System: AMES SALMONELLA TYPHIMURIUM, Strain/Indicator: TA100, Metabolic Activation: RAT, LIVER, S-9, AROCLOR 1254 (10%), Method: PREINCUBATION): inactive; negative
mutagenic call (Test System: AMES SALMONELLA TYPHIMURIUM, Strain/Indicator: TA100, Metabolic Activation: RAT, LIVER, S-9, AROCLOR 1254 (30%), Method: PREINCUBATION): inactive; negative
mutagenic call (Test System: AMES SALMONELLA TYPHIMURIUM, Strain/Indicator: TA100, Metabolic Activation: RAT, LIVER, S-9, AROCLOR 1254, Method: STANDARD PLATE): inactive; negative
mutagenic call (Test System: AMES SALMONELLA TYPHIMURIUM, Strain/Indicator: TA100, Metabolic Activation: S-9): inactive; negative
mutagenic call (Test System: AMES SALMONELLA TYPHIMURIUM, Strain/Indicator: TA1535, Metabolic Activation: HAMSTER, LIVER, S-9, AROCLOR 1254 (10 OR 30%), Method: PREINCUBATION): inactive; negative
mutagenic call (Test System: AMES SALMONELLA TYPHIMURIUM, Strain/Indicator: TA1535, Metabolic Activation: MOUSE, LIVER, S-9, Method: STANDARD PLATE): inactive; negative
mutagenic call (Test System: AMES SALMONELLA TYPHIMURIUM, Strain/Indicator: TA1535, Metabolic Activation: NONE): inactive; negative
mutagenic call (Test System: AMES SALMONELLA TYPHIMURIUM, Strain/Indicator: TA1535, Metabolic Activation: NONE, Method: PREINCUBATION): inactive; negative
mutagenic call (Test System: AMES SALMONELLA TYPHIMURIUM, Strain/Indicator: TA1535, Metabolic Activation: NONE, Method: STANDARD PLATE): inactive; negative
mutagenic call (Test System: AMES SALMONELLA TYPHIMURIUM, Strain/Indicator: TA1535, Metabolic Activation: RAT, LIVER, S-9, AROCLOR 1254 (10%), Method: PREINCUBATION): inactive; negative
mutagenic call (Test System: AMES SALMONELLA TYPHIMURIUM, Strain/Indicator: TA1535, Metabolic Activation: RAT, LIVER, S-9, AROCLOR 1254 (30%), Method: PREINCUBATION): inactive; negative
mutagenic call (Test System: AMES SALMONELLA TYPHIMURIUM, Strain/Indicator: TA1535, Metabolic Activation: RAT, LIVER, S-9, AROCLOR 1254, Method: STANDARD PLATE): inactive; negative
mutagenic call (Test System: AMES SALMONELLA TYPHIMURIUM, Strain/Indicator: TA1535, Metabolic Activation: S-9): inactive; negative
mutagenic call (Test System: AMES SALMONELLA TYPHIMURIUM, Strain/Indicator: TA1537, Metabolic Activation: MOUSE, LIVER, S-9, Method: STANDARD PLATE): inactive; negative
mutagenic call (Test System: AMES SALMONELLA TYPHIMURIUM, Strain/Indicator: TA1537, Metabolic Activation: NONE): inactive; negative
mutagenic call (Test System: AMES SALMONELLA TYPHIMURIUM, Strain/Indicator: TA1537, Metabolic Activation: NONE, Method: STANDARD PLATE): inactive; negative
mutagenic call (Test System: AMES SALMONELLA TYPHIMURIUM, Strain/Indicator: TA1537, Metabolic Activation: RAT, LIVER, S-9, AROCLOR 1254, Method: STANDARD PLATE): inactive; negative
mutagenic call (Test System: AMES SALMONELLA TYPHIMURIUM, Strain/Indicator: TA1537, Metabolic Activation: S-9): inactive; negative
mutagenic call (Test System: AMES SALMONELLA TYPHIMURIUM, Strain/Indicator: TA1538, Metabolic Activation: MOUSE, LIVER, S-9, Method: STANDARD PLATE): inactive; negative
mutagenic call (Test System: AMES SALMONELLA TYPHIMURIUM, Strain/Indicator: TA1538, Metabolic Activation: NONE, Method: STANDARD PLATE): inactive; negative
mutagenic call (Test System: AMES SALMONELLA TYPHIMURIUM, Strain/Indicator: TA1538, Metabolic Activation: RAT, LIVER, S-9, AROCLOR 1254, Method: STANDARD PLATE): inactive; negative
mutagenic call (Test System: E. COLI, Strain/Indicator: WP2 UVRA, Metabolic Activation: HAMSTER, LIVER, S-9, AROCLOR 1254, Method: STANDARD PLATE): inactive; negative
mutagenic call (Test System: E. COLI, Strain/Indicator: WP2 UVRA, Metabolic Activation: HAMSTER, LIVER, S-9, Method: STANDARD PLATE): inactive; negative
mutagenic call (Test System: E. COLI, Strain/Indicator: WP2 UVRA, Metabolic Activation: MOUSE, LIVER, S-9, AROCLOR 1254, Method: STANDARD PLATE): inactive; negative
mutagenic call (Test System: E. COLI, Strain/Indicator: WP2 UVRA, Metabolic Activation: MOUSE, LIVER, S-9, Method: STANDARD PLATE): inactive; negative
mutagenic call (Test System: E. COLI, Strain/Indicator: WP2 UVRA, Metabolic Activation: NONE): inactive; negative
mutagenic call (Test System: E. COLI, Strain/Indicator: WP2 UVRA, Metabolic Activation: NONE, Method: STANDARD PLATE): inactive; negative
mutagenic call (Test System: E. COLI, Strain/Indicator: WP2 UVRA, Metabolic Activation: RAT, LIVER, S-9, AROCLOR 1254, Method: STANDARD PLATE): inactive; negative
mutagenic call (Test System: E. COLI, Strain/Indicator: WP2 UVRA, Metabolic Activation: RAT, LIVER, S-9, Method: STANDARD PLATE): inactive; negative
mutagenic call (Test System: E. COLI, Strain/Indicator: WP2 UVRA, Metabolic Activation: S-9): inactive; negative
